US10988459B2 (priority 2015, dated 2021)
pKi: −log10 of the molar value. Several values for one entry are separate records, joined by “and”; a condition that tells them apart may be missing. Identical values can stand only once.

The molecules below were run against human RIP1 kinase domain (2-375) (Homo sapiens (Human), UniProt Q13546) (assay: biochemical). Settings: Ki.
Assay type: biochemical
In short: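 Ki^app comes from Morrison tight-binding fits of fractional activity versus compound concentration. Activity was read as ADP production, via tracer displacement lowering fluorescence polarization (633 nm laser). Conditions: 2 h, 50 nM insect-cell-expressed enzyme, 50 uM ATP, 30 mM MgCl2, 1 mM DTT, 0.5% DMSO, pH 7.5 Hepes.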

human RIP1 kinase domain (2-375), sequence (Q13546 2-375): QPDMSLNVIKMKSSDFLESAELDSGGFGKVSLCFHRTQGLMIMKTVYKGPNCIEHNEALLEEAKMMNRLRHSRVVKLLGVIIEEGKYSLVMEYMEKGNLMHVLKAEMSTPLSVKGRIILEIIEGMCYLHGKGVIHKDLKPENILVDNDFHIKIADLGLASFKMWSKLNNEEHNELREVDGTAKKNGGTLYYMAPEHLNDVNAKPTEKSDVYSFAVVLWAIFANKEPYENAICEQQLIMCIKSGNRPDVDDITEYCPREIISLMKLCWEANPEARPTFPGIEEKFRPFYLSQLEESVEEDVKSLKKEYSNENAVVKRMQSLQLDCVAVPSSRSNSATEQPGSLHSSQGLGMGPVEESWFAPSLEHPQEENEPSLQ

SMILES	pKi
CN1C(=O)[C@@H](NC(=O)c2ncn(Cc3ccccc3)n2)CCn2nc(C3CNC3)cc21 [Example 754, 1-benzyl-N-[(6S)-2-(azetidin-3-yl)-4-methyl-5-oxo-7,8-dihydro-6H-pyrazolo[1,5-a][1,3]diazepin-6-yl]-1,2,4-triazole-3-carboxamide]	6.39

Same assay, conditions: Table 1; apparent Ki (Morrison tight-binding fit); 50 nM RIP1 kinase domain, 50 uM ATP, 2 hours incubation; read-out: RIP1 Ki

SMILES	pKi
CN1C(=O)[C@@H](NC(=O)c2n[nH]c3c2CC2CC2C3)COc2ccccc21 (stereo partly drawn) [Example 56, N-((S)-5-methyl-4-oxo-2,3,4,5-tetrahydrobenzo[b][1,4]oxazepin-3-yl)-1,4,4a,5,5a,6-hexahydrocyclopropa[f]indazole-3-carboxamide]	6.04
CN1C(=O)[C@@H](NC(=O)c2nnc(Cc3ccccc3)[nH]2)CCn2nccc21 [Example 27, (S)-5-benzyl-N-(4-methyl-5-oxo-5,6,7,8-tetrahydro-4H-pyrazolo [1,5-a][1,3]diazepin-6-yl)-4H-1,2,4-triazole-3-carboxamide]	7.34
Cc1cc2n(n1)CCC(NC(=O)c1nnc(Cc3ccccc3)[nH]1)C(=O)N2C (centres unmarked) [Example 28, 5-benzyl-N-(2,4-dimethyl-5-oxo-5,6,7,8-tetrahydro-4H-pyrazolo[1,5-a][1,3]diazepin-6-yl)-4H-1,2,4-triazole-3-carboxamide]	6.86

Same assay, conditions: Table 5; apparent Ki (Morrison tight-binding fit); 50 nM RIP1 kinase domain, 50 uM ATP, 2 hours incubation; read-out: Ki

SMILES	pKi
CN1C(=O)[C@@H](NC(=O)c2ccn(Cc3ccccc3)n2)CCn2nccc21 [Example 740, 1-benzyl-N-[(6S)-4-methyl-5-oxo-7,8-dihydro-6H-pyrazolo[1,5-a][1,3]diazepin-6-yl]pyrazole-3-carboxamide]	6.86
CC(C)Cn1cc(-c2cc3n(n2)CCC(NC(=O)c2ncn(Cc4ccccc4)n2)C(=O)N3C)cn1 (racemic) [Example 699, 1-benzyl-N-[2-(1-isobutylpyrazol-4-yl)-4-methyl-5-oxo-7,8-dihydro-6H-pyrazolo[1,5-a][1,3]diazepin-6-yl]-1,2,4-triazole-3-carboxamide]	7.28
CN1C(=O)[C@@H](NC(=O)c2nc3n(n2)CCN[C@@H]3c2ccccc2)COc2ccccc21 (single isomer, unassigned) [Example 785]	7.13

The remaining lines, values ahead:

pKi	SMILES
7.21	CN1C(=O)[C@@H](NC(=O)c2ncn(Cc3ccccc3)n2)CCn2nc(CO)cc21 (single isomer, unassigned) [Example 788]
7.57	CCn1cc(-c2cc3n(n2)CCC(NC(=O)c2ncn(Cc4ccccc4)n2)C(=O)N3C)cn1 (single isomer, unassigned) [Example 698, 1-benzyl-N-[2-(1-ethylpyrazol-4-yl)-4-methyl-5-oxo-7,8-dihydro-6H-pyrazolo[1,5-a][1,3]diazepin-6-yl]-1,2,4-triazole-3-carboxamide]

Same assay, conditions: human RIP1 kinase domain (2-375), 50 uM ATP, 2 hours incubation, Transcreener ADP assay; read-out: RIP1 Ki

SMILES	pKi
CN1C(=O)[C@@H](NC(=O)c2cc3c(cn2)cnn3C2CCOC2)COc2ccccc21 (stereo partly drawn) [Example 128, N—((S)-5-methyl-4-oxo-2,3,4,5-tetrahydrobenzo[b][1,4]oxazepin-3-yl)-1-(tetrahydrofuran-3-yl)-1H-pyrazolo[4,3-c]pyridine-6-carboxamide]	7.21
CN1C(=O)[C@@H](NC(=O)c2n[nH]c3c2CC(CC(F)(F)F)OC3)COc2ccccc21 (stereo partly drawn) [Example 210, N—((S)-5-methyl-4-oxo-2,3,4,5-tetrahydrobenzo[b][1,4]oxazepin-3-yl)-5-(2,2,2-trifluoroethyl)-1,4,5,7-tetrahydropyrano[3,4-c]pyrazole-3-carboxamide]	6.71
CN1C(=O)C(NC(=O)c2n[nH]c3c2C[C@@H](C(F)(F)F)CC3)CCn2nc3c(c21)CCCC3 (stereo partly drawn) [Example 137, (5S)—N-(1-methyl-2-oxo-2,3,4,5,8,9,10,11-octahydro-1H-[1,3]diazepino[1,2-b]indazol-3-yl)-5-(trifluoromethyl)-4,5,6,7-tetrahydro-1H-indazole-3-carboxamide]	5.74
Cc1cc2n(n1)CC[C@H](NC(=O)c1ncn(Cc3cccc(F)c3F)n1)C(=O)N2C [Example 219, (S)-1-(2,3-difluorobenzyl)-N-(2,4-dimethyl-5-oxo-5,6,7,8-tetrahydro-4H-pyrazolo[1,5-a][1,3]diazepin-6-yl)-1H-1,2,4-triazole-3-carboxamide]	7.53
CN1C(=O)[C@@H](NC(=O)c2cc3c(cn2)cnn3CC(F)(F)F)COc2ccccc21 [Example 127, N-[(3S)-5-methyl-4-oxo-2,3-dihydro-1,5-benzoxazepin-3-yl]-1-(2,2,2 trifluoroethyl)pyrazolo[4,3-c]pyridine-6-carboxamide]	6.63

Same assay, conditions: human RIP1 kinase domain (2-375), Transcreener ADP assay, 50 uM ATP, 2 hours incubation; read-out: RIP1 Ki

SMILES	pKi
Cc1cc2n(n1)CCC(NC(=O)c1ncn(CCC(F)(F)F)n1)C(=O)N2C (centres unmarked) [Example 250, N-(2,4-dimethyl-5-oxo-5,6,7,8-tetrahydro-4H-pyrazolo[1,5-a][1,3]diazepin-6-yl)-1-(3,3,3-trifluoropropyl)-1H-1,2,4-triazole-3-carboxamide]	6.00
CC[C@]1(C)OCc2cnc(C(=O)N[C@H]3CCn4nc([C@H]5CC5(F)F)cc4N(C)C3=O)cc21 [Example 319, (S)—N—((S)-2-((R)-2,2-difluorocyclopropyl)-4-methyl-5-oxo-5,6,7,8-tetrahydro-4H-pyrazolo[1,5-a][1,3]diazepin-6-yl)-1-ethyl-1-methyl-1,3-dihydrofuro[3,4-c]pyridine-6-carboxamide]	< 5.00
Cc1cc2n(n1)CCC(NC(=O)c1ncn(CC3CCC3)n1)C(=O)N2C (centres unmarked) [Example 247, 1-(cyclobutylmethyl)-N-(2,4-dimethyl-5-oxo-5,6,7,8-tetrahydro-4H-pyrazolo[1,5-a][1,3]diazepin-6-yl)-1H-1,2,4-triazole-3-carboxamide]	6.66

Same assay, conditions: tight-binding apparent inhibition constant; human RIP1 kinase domain (2-375) 50 nM, 50 uM ATP, 2 hours; read-out: Ki

SMILES	pKi
CC(C)n1ncc2cnc(C(=O)N[C@H]3COc4cc(F)cc(F)c4NC3=O)nc21 [Example 605, 1-isopropyl-N-[(3S)-6,8-difluoro-4-oxo-3,5-dihydro-2H-1,5-benzoxazepin-3-yl]pyrazolo[3,4-d]pyrimidine-6-carboxamide]	8.02
Cc1cnc2n1CCC(NC(=O)c1ncn(Cc3ccccc3)n1)C(=O)N2C (centres unmarked) [Example 546, 1-benzyl-N-(3,9-dimethyl-8-oxo-6,7-dihydro-5H-imidazo[1,2-a][1,3]diazepin-7-yl)-1,2,4-triazole-3-carboxamide]	6.66
Cc1nc(C(=O)N[C@H]2CCn3nccc3N(C)C2=O)nn1Cc1ccccc1 [Example 462, (S)-1-Benzyl-5-methyl-N-(4-methyl-5-oxo-5,6,7,8-tetrahydro-4H-pyrazolo[1,5-a][1,3]diazepin-6-yl)-1H-1,2,4-triazole-3-carboxamide]	7.48
CN1C(=O)[C@@H](NC(=O)c2nc3cccc(-c4cc(F)ccc4F)n3n2)CCn2nccc21 [Example 382, (S)-5-(2,5-difluorophenyl)-N-(4-methyl-5-oxo-5,6,7,8-tetrahydro-4H-pyrazolo[1,5-a][1,3]diazepin-6-yl)-[1,2,4]triazolo[1,5-a]pyridine-2-carboxamide]	7.88
CN1C(=O)[C@@H](NC(=O)c2nc3n(n2)CCOC32CCCC2)COc2ccccc21 [Example 562, N-[(3S)-5-methyl-4-oxo-2,3-dihydro-1,5-benzoxazepin-3-yl]spiro[5,6-dihydro-[1,2,4]triazolo[5,1-c][1,4]oxazine-8,1′-cyclopentane]-2-carboxamide]	7.70
CN1C(=O)[C@H](NC(=O)c2nnc(Cc3ccccc3)[nH]2)CCn2nc([C@H]3CC3(F)F)cc21 (racemic) [Example 673, 5-benzyl-N-[rac-(6R)-4-methyl-5-oxo-2-[rac-(1R)-2,2-difluorocyclopropyl]-7,8-dihydro-6H-pyrazolo[1,5-a] [1,3]diazepin-6-yl]-4H-1,2,4-triazole-3-carboxamide]	7.39

Continued, values first:

pKi	SMILES
6.89	Cc1cc2n(n1)CC[C@H](NC(=O)c1ncn(CC3(C)CCCC3)n1)C(=O)N2C [Example 495, 1-[(1-methylcyclopentyl)methyl]-N-(6S)-2,4-dimethyl-5-oxo-7,8-dihydro-6H-pyrazolo[1,5-a][1,3]diazepin-6-yl-1,2,4-triazole-3-carboxamide]
7.62	CN1C(=O)[C@@H](NC(=O)c2ncn(Cc3ccccc3C(F)(F)F)n2)CCn2nccc21 [Example 583, N-(6S)-4-methyl-5-oxo-7,8-dihydro-6H-pyrazolo[1,5-a][1,3]diazepin-6-yl]-1-[[2-(trifluoromethyl)phenyl]methyl-1,2,4-triazole-3-carboxamide]
7.55	CN1C(=O)[C@@H](NC(=O)c2ncn(Cc3ccc(F)cc3)n2)CCn2nccc21 (racemic) [Example 339, 1-[(4-fluorophenyl)methyl]-N-[rac-(6S)-4-methyl-5-oxo-7,8-dihydro-6H-pyrazolo[1,5-a][1,3]diazepin-6-yl]-1,2,4-triazole-3-carboxamide]
8.12 and 7.37	CN1C(=O)[C@@H](NC(=O)c2ncn(Cc3ccccc3Cl)n2)CCn2nccc21 [Example 582, 1-[(2-chlorophenyl)methyl]-N-(6S)-4-methyl-5-oxo-7,8-dihydro-6H-pyrazolo[1,5-a][1,3]diazepin-6-yl-1,2,4-triazole-3-carboxamide]
7.59	CN1C(=O)[C@H](NC(=O)c2ncn(Cc3cc(F)ccc3F)n2)CCn2cncc21 [Example 507, 1-[(2,5-difluorophenyl)methyl]-N-[(3R)-1-methyl-2-oxo-4,5-dihydro-3H-imidazo[1,5-a][1,3]diazepin-3-yl]-1,2,4-triazole-3-carboxamide]
6.31	CN1C(=O)C(NC(=O)c2ncn(Cc3ccccc3)n2)CCn2nc(C(C)(C)O)cc21 (racemic) [Example 372, 1-benzyl-N-[2-(1-hydroxy-1-methyl-ethyl)-4-methyl-5-oxo-7,8-dihydro-6H-pyrazolo[1,5-a][1,3]diazepin-6-yl]-1,2,4-triazole-3-carboxamide]
